Reference: patent publication US11518764B2, “Substituted heteroaryls as inhibitors of the BCL6 BTB domain protein-protein interaction” (Ontario Institute for Cancer Research (OICR), priority 2018, dated 2022)

Key:
Karpas422 cells = assay: Tumor cell growth inhibition assay; type: cell-based; conditions: Homo sapiens, KARPAS-422, 144 h, read-out: Tumor Growth Inhibition in Karpas-422 (IC50, uM), Karpas422 cells, six days, ATPlite
Method: Tumor Cell Growth inhibition Assay
Karpas422 cells were seeded into a 96-well plate at 2,000 cells/well in 150 ul medium (Alpha-MEM containing 10% FBS, […] Normocin, and […] Gentamycin, Invitrogen). A HP D300 digital dispenser was used to dose cells with DMSO or test compounds across a 10-point range of concentrations (high dose of 5 uM), and cultures were grown in a humidified 5% CO2 incubator at 37° C. After six days, plates were removed from incubator and equilibrated to room temperature. An equal volume of ATPlite assay reagent was added to each well, and samples were processed according to manufacturer's instructions (Perkin Elmer). Luminescent signal was measured using an Envision plate reader equipped with a US-Luminescence detector.

BCL6 BTB domain = BCL6 BTB domain (Homo sapiens (Human), UniProt P41182); assay: Surface plasmon resonance (SPR) assay; type: binding; conditions: BCL6 BTB domain captured on SA chip, single cycle kinetics
[1] = system: BCL6 reporter construct (3xBCL6-TK-Luc) in SuDHL4 cells; assay: Cell-based luciferase assay; conditions: Homo sapiens, SU-DHL-4, 48 h, read-out: Luciferase-Assay EC50, uM), SuDHL4-3xBCL6-TK-Luc cells, two days, high dose 10 uM
Method: Cell-Based Luciferase Assay
A BCL6 reporter construct containing three copies of the consensus BCL6 binding site, the TK promoter, and the firefly luciferase gene was stably expressed in SuDHL4 cells after lentivirus infection and selection with Blasticidin. SuDHL4-3×BCL6-TK-Luc cells were seeded into a Viewplate 384-well assay dish at 15,000 cells/well in 25 ul medium (Alpha-MEM high glucose containing 10% FBS, 25 mM HEPES, […] GlutaMAX, 100 ug/ml Normocin, and […] Gentamycin, Invitrogen). A HP D300 digital dispenser was used to dose cells with DMSO or test compounds across a 10-point range of concentrations (high dose of 10 uM), and cultures were grown in a humidified 5% CO2 incubator at 37° C. After two days, plates were removed from the incubator and equilibrated to room temperature. An equal volume of neolite reporter gene assay reagent was added to each well, and samples were processed according to manufacturer's instructions (Perkin Elmer). Luminescent signal was measured using an Envision plate reader equipped with a US-Luminescence detector.

SMILES | IC50 (Karpas422 cells) | Kd (BCL6 BTB domain) | EC50 [1]
C[C@H]1CN(Cc2ccco2)CCN1c1cc(NC(=O)Cn2cc(-c3cc(C(N)=O)c(O)c(F)c3F)c3c(=O)n(C)cnc32)c(Cl)cn1 [Compound I-405] | 0.254 µM | 32.6 nM | 0.459 µM
Cc1nc2c(c(-c3cc(C(N)=O)c(O)c4c3OCCO4)cn2CC(=O)Nc2cc(N3CCOC[C@@H]3C)ncc2Cl)c(=O)n1C [Compound I-309] | 2.55 µM | 146 nM | 1.02 µM
Cc1nc2c(c(-c3cc(Cl)c(O)c(C(N)=O)c3)cn2CC(=O)Nc2cc(N3CC(C)(C)N(C)C(C)(C)C3)ncc2Cl)c(=O)n1C [Compound I-232] | 0.222 µM | 11.8 nM | 0.267 µM
Cn1cnc2c(c(-c3cc(C(N)=O)c(O)c(F)c3F)cn2CC(=O)Nc2cc(N3CCOCC3)ncc2F)c1=O [Compound I-404] | 10 µM | 106 nM | 4.06 µM
CO[C@H]1CN(c2cc(NC(=O)Cn3cc(-c4cc(Cl)c(O)c(C(N)=O)c4)c4c(=O)n(C)c(C)nc43)c(Cl)c(F)n2)C[C@H]1F [Compound I-400] | 0.408 µM | 27.8 nM | 0.204 µM
C[C@H]1CN(CC(CO)CO)CCN1c1cc(NC(=O)Cn2cc(-c3cc(C(N)=O)c(O)c(F)c3F)c3c(=O)n(C)cnc32)c(Cl)c(F)n1 [Compound I-463, (S)-5-(7-(2-((3-chloro-2-fluoro-6-(4-(3-hydroxy-2-(hydroxymethyl)propyl)-2-methylpiperazin-1-yl)pyridin-4-yl)amino)-2-oxoethyl)-3-methyl-4-oxo-4,7-dihydro-3H-pyrrolo[2,3-d]pyrimidin-5-yl)-3,4-difluoro-2-hydroxybenzamide] | 1.28 µM | 8.56 nM | 3.53 µM
Cn1cnc2c(c(-c3cc(Cl)c(O)c(C(N)=O)c3)cn2CC(=O)Nc2cc(N3Cc4ccncc4C3)ncc2Cl)c1=O [Compound I-152] | 0.134 µM | 20.7 nM | 0.168 µM
Cn1cnc2c(c(-c3cc(C(N)=O)c(O)cc3F)cn2CC(=O)Nc2cc(N3CCOCC3)ncc2F)c1=O [Compound I-222] | 0.371 µM | 228 nM | 1.33 µM
Cn1cnc2c(c(-c3cc(Cl)c(O)c(C(N)=O)c3)cn2CC(=O)Nc2c(F)c(F)nc(F)c2Cl)c1=O [Compound I-210] | 6.16 µM | 1100 nM | 14.9 µM
Cn1cnc2c(c(-c3cc(Cl)c(O)c(C(N)=O)c3)cn2CC(=O)NC2CCCCC2)c1=O [Compound I-211] | 10 µM | 1210 nM | 10 µM
CN1CC2(CCN(c3cc(NC(=O)Cn4cc(-c5cc(Cl)c(O)c(C(N)=O)c5)c5c(=O)n(C)cnc54)c(Cl)cn3)C2)C1 [Compound I-482] | 2.32 µM | 34.3 nM | 4.69 µM
COc1cc(-c2cn(CC(=O)Nc3cc(N4CCOC[C@@H]4C)ncc3Cl)c3ncn(C)c(=O)c23)cc(C(N)=O)c1O [Compound I-153] | 0.176 µM | 4.14 nM | 0.313 µM
Cc1nc2c(c(-c3cc(C(N)=O)c(O)c4c3OCO4)cn2CC(=O)Nc2cc(N3CCOC[C@@H]3C)ncc2Cl)c(=O)n1C [Compound I-308] | 0.0161 µM | 2.05 nM | 0.0368 µM
NC(=O)c1cc(-c2cn(CC(=O)Nc3cc(N4CC5CCC(C4)O5)ncc3Cl)c3nc[nH]c(=O)c23)cc(Cl)c1O [Compound I-242] | 0.312 µM | 5.01 nM | 0.483 µM
CC(C1CC1)N1CCN(c2cc(NC(=O)Cn3cc(-c4cc(Cl)c(O)c(C(N)=O)c4)c4c(=O)n(C)cnc43)c(Cl)cn2)[C@@H](C)C1 (stereo partly drawn) [Compound I-392] | 0.072 µM | 15.5 nM | 0.178 µM
Cn1cnc2c(c(-c3cc(Cl)c(O)c(C(N)=O)c3)cn2CC(=O)Nc2cc(N3CC(C)(C)NC(C)(C)C3)ncc2Cl)c1=O [Compound I-201] | 0.155 µM | 11.1 nM | 0.317 µM
Cn1cnc2c(c(-c3cc(Cl)c(O)c(C(N)=O)c3)cn2CC(=O)Nc2cc(N3CCOC4COCC43)ncc2Cl)c1=O (stereo not drawn) [Compound I-277] | 0.255 µM | 21 nM | 0.418 µM
